How the values were obtained:
[1] = tested on: lung-BMICs; test: Intracranial injection of lung-BMICs, daily oral gavage treatment; type: in vivo, mice; conditions: 100 mg/kg daily oral gavage from 24 h after injection; log rank n.s. [MPA], p = 0.0005 [Compound 3]
Description: The cells were injected intracranially to ensure that any survival benefit would be due to the compounds crossing the BBB and targeting BMICs in the brain.
(§1) All experimental procedures involving animal work has been reviewed and approved by McMaster University Animal Research Ethics Board. Non-obese diabetic-severe combined immunodeficient IL2r γ ^null (NSG) mice are used for all experiments. Equal numbers of male and female mice were used for all experiments. Healthy mice were 6–8 weeks at time of use. Mice are anesthetized by gas anesthesia using isoflurane (4% induction, 2.5% maintenance) before procedure. Cells were engineered to express firefly luciferase and were injected intracardially, orthotopically, or intracranially as previously described.[13]^,[14]^,[63]^,[64]^,[65] […] Mice are monitored weekly for signs of illness until endpoint.

[2] = tested on: IMPDH KO BT478 cells; test: Dose-response assays using AAVS1 and IMPDH KO cells; type: cell-based, human; conditions: IMPDH1 and IMPDH2 knocked out
From the text: In parallel, we knocked out the safe-harbor locus, AAVS1, as a control cell line. Knockouts were validated by western blot (Figures 5E and S4D). Loss of IMPDH led to tumor cell death within 1 week of knockout (Figure 5F).
Guide RNAs (gRNAs) targeting AAVS1 (5′-[…]-3′) and IMPDH1 (5′- […]-3′) and IMPDH2 (5′-a[…]-3′) were obtained from TKOv3[76] and cloned into a single-gRNA lentiCRISPRv2 construct (Addgene 52961). Sequences were verified using Sanger sequencing. Each plasmid was packaged independently into lentivirus using second-generation packaging constructs as described previously.[77] BMICs were infected with lentivirus containing single-gRNA lentiCRISPRv2 constructs targeting AAVS1 or IMPDH1 or IMPDH2 (three gRNAs). Twenty-four hours post-infection, virus-containing media was replaced with fresh media containing puromycin (1–2 μg/mL) (ThermoFisher, Cat#A1113803) for 48–72 h. The knockout efficiency was validated by Western Blotting for evaluation of IMPDH protein expression.

[3] = read-out: clinically relevant plasma Cmax concentration; cited from earlier work
[4] = tested on: primary CRUK0748 lung tumor cells; test: Pre-treatment model, intrathoracic engraftment of primary lung tumor cells; type: in vivo, mice; conditions: cells pre-treated in vitro
Description: Mice injected with MPA-treated cells also experienced a significant increase in median survival time of 6 days compared to the mice injected with vehicle-treated cells (Figure 3H).
BMICs were dissociated into single cell suspensions and resuspended in phosphate buffered saline (PBS, Wisent Bio) with 2 mM EDTA. Cells were stained with APC-conjugated anti-human TRA-1-85 (CD147; Cat # 130-128-900, Miltenyi Biotec) and incubated for 15 min at room temperature. The viability dye 7-Aminoactinomycin D (7-AAD; Cat # 00-6993-50, eBioscience) was used to exclude dead cells; incubation with 7-AAD allows for penetration of compromised membranes and binding to DNA.[74] Live cells were analyzed using Summit 5.4 software on MoFlo XDP cell sorter (Beckman Coulter) to confirm human BMIC metastasis to the brain.

[5] = tested on: melanoma-BM; test: Pre-treatment melanoma-BM PDX model; type: in vivo, mice; conditions: pre-treated BMICs
From the text: We decided to focus primarily on lung-BM for our in vivo experiments because they account for over 50% of all BM cases. […] This phenotype was also recapitulated in a melanoma-BM PDX model (Figures S2A and S2B).
Fig S2. PDX m odels m im ic patient data, related to Figure 3. a, Representative IVIS bioluminescence images of […]
imaging system. Comparisons were made via a two-tailed unpaired t-test and data are presented as mean ± SED from 4-5 technical replicates. […]
following intracranial engraftment of patient-der ived BMICs. Comparisons were made via a Log-rank (Mantel-Cox) test, P value is indicated. c, CRUK0748, a patient- derived lung tumor cell line that metastasized to the brain of the patient it was retrieved from, was confirmed to metastasize to the brains of mice in our animal models following intrathoracic injection. CRUK0733, a patient-derived lung tumor cell line that has not metastasized to the brain of […]
anti-proliferative effect on BMICs isolated from the brains of mice following CRUK0748 metastasis to the brain.
(1 picture or pasted object on this page, not shown here)

[6] = tested on: patient-derived BMICs; test: Clonogenic secondary sphere formation assay after drug removal; type: cell-based, human; conditions: IC80 treatment for 72 h, then removal from culture media
[7] = tested on: patient-derived BMICs; test: Migration (wound healing) assay; type: cell-based, human; conditions: IC80
Description: Cells were plated at a density of 15,000 to 25,000 cells (depending upon the cell line) per 70 μL media supplemented with 10% FBS into two separate wells of a bi-silicon structure within a 48-well plate. The cells were allowed to adhere for 24 h at 37C within a humidified atmosphere of 5% CO2 to form a monolayer of cells. After 24 h the silicon inserts were detached from the 48-well plate, leaving behind two monolayers of cells that are separated by an empty ‘wound’ and enabling of cell migration into the exclusion zone. […] The plate was inserted into the Incucyte in vitro imaging system where the ‘wound’ was imaged periodically over time. The Incucyte scan type chosen was 300ms adherent cell-by-cell alongside phase and green imaging channels within a 10× objective. The images were uploaded to ImageJ where the wound area was calculated to determine the wound coverage percentage.

[8] = tested on: patient-derived lung-BMICs; test: Intracardiac injection of lung-BMICs, daily oral gavage treatment; type: in vivo, mice; conditions: 100 mg/kg daily oral gavage, vs placebo
From the text: We next wondered whether a drug used to slow down, or block, BM needed to be BBB penetrant and aimed to uncover whether MPA could target pre-metastatic BMICs in the circulation in a more clinically relevant in vivo treatment model.
as §1
Fig S3. MPA m ust cross the blood brain barrier to eff ectively slow the progression of BM over tim e, related to Figures 3 and 4. a, Mice were either orthotopically (intratho racically) or intracardiac injected with lung BMICs, […]
to placebo, but (f) had the same number of human cells detected in their brains following humane endpoint by flow cytometry. n.s. = not significant. […]

Row | SMILES | survival advantage [1] | anti-BMIC activity following IMPDH knockout [2] | Cmax [3] [µM] | TRA-1-85-positive human cells detected in brains ([4]; humane endpoint, flow cytometry, vs vehicle) | increase in median survival time ([4]; intrathoracic injection, vs vehicle-treated cells) [days] | brain tumor burden and survival phenotype [5] | sphere-forming capability following drug removal [6] | migration of patient-derived BMICs [7] | brain tumor burden ([8]; 7 days post-injection) | difference in brain tumor burden ([8]; 14 days post-injection)
1 | COc1c(C)c2c(c(O)c1C/C=C(\C)CCC(=O)OCCN1CCCC1)C(=O)OC2 [Compound 3] | significant survival advantage | lose their anti-BMIC activity | – | – | – | – | – | – | – | –
2 | COc1c(C)c2c(c(O)c1C/C=C(\C)CCC(=O)O)C(=O)OC2 [MPA, Mycophenolic acid] | no survival advantage | lose their anti-BMIC activity | 10 | significantly fewer | 6 | recapitulated | do not regain sphere-forming capability | inhibits the migration | significantly reduced brain tumor burden | no longer observed
